Assay results taken from patent US12630501B2, “Anti-fibrotic compounds and use thereof” (HADASIT MEDICAL RESEARCH SERVICES AND DEVELOPMENT LTD., priority 2019, dated 2026).

Columns and labels:
IPF-lung myofibroblasts = test: Anti-Fas mAb-mediated cell death of IPF-lung myofibroblasts (trypan blue, caspase-3 cleavage); type: cell-based, human
Procedure: Cell death and apoptosis Apoptosis was assessed with Annexin V affinity labeling, trypan blue exclusion, and caspase-3 cleavage in WB as described in Golan-Gerstl et al., Am. J. Respir. Cell Mol. Biol. 36: 270-275, 2007; Wallach-Dayan et al., PNAS USA 104: 20460-20465, 2007; and Wallach-Dayan et al., Am. J. Physiol. Lung Cell Mol. Physiol. 290: L790-L796, 2006.
Caspase-8 activation further targets effector caspase-3 and caspase-7, a parallel […] pathway, caspases 6 and 9, MAPKs, and Bim phosphorylations with binding cascades to Bax, Apaf-1, and caspase-9, allowing Bax-mediated cell death to be detected as well. Concomitantly, inhibitors of these processes, including FLIP, show negative interaction with FADD and with the inhibitors of apoptotic proteins (IAPs). […] In addition, CMH increased CH-11 anti-human Fas mAb-mediated IPF-myofibroblast cell death (24 h, 10 μM) above that produced by treatment with the vehicle alone (4% DMSO), as shown by microscope images (FIG. 5A) and trypan blue exclusion (FIG. 5A, quantification in inserts, and FIG. 5B, graphical representation), with 0.9-1×10^5 viable cells in control compared to only 0.3×10^5 cells following CMH. In fact, CMH-treated cells were 10 times more likely to undergo Fas-induced apoptosis (2.8 compared to 0.3), as determined by the OD of cleaved to uncleaved caspase-3 ratios (FIG. 5C). CMH therefore amplifies Fas signaling cascades above those induced by Fas alone. Thus, multiple intracellular anti-apoptotic signaling pathways mediated by SIRT1 and Ku70 were altered by CMH in vitro, which further enhanced Fas-apoptosis cascades.

HDAC2 = HDAC2 (Homo sapiens, UniProt Q92769); conditions: prostate cancer cells; cited from earlier work
Chain of HDAC2 (Q92769 whole entry, species assumed): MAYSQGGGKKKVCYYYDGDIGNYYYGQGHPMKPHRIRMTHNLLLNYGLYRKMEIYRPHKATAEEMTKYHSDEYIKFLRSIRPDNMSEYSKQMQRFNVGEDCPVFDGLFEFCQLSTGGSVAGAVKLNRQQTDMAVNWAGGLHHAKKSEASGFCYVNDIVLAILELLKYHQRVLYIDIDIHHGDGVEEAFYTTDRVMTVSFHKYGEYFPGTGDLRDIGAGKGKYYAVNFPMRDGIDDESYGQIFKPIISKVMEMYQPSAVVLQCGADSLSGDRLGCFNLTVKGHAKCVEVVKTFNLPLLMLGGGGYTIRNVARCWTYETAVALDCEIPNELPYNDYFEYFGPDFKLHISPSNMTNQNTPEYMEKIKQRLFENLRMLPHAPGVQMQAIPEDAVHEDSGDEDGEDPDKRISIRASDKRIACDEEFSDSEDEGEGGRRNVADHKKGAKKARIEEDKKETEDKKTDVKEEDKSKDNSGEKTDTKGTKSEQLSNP

Ku70/FLIP complex = test: Ku70 immunoprecipitation with FLIP immunoblot in IPF-lung myofibroblasts; type: cell-based, human; conditions: CMH 30 μM, 72 h
Procedure: (§1) Human lung myofibroblasts Differentiated fibroblasts from IPF-lungs and controls from patient lung biopsies performed for tumor diagnosis were obtained under a protocol detailed in Wallach-Dayan et al., J. Autoimmun. 59: 67-76, 2015. LL 97A (AlMy) (ATCC® CCL-191™)-IPF-lung, and LL 24 (ATCC® CCL-151™)-normal lung fibroblast cell lines were used.
(§2) Immunoprecipitation and immunoblotting Standard protocols were performed as described in Golan-Gerstl et al., Am. J. Respir. Cell Mol. Biol. 47: 271-279, 2012.
(§3) FLIP downregulation from an OD of 1.85 to 0.49 (about 3.5-fold) was detected in WB (FIG. 4F), and a […] from a mean fluorescence intensity (MFI)=10^3 to only 10^1 was detected with flow cytometry (FIG. 4G). Thus, SIRT1-mediated Ku70-deacetylation stabilizes IPF-lung myofibroblast FLIP via Ku70/FLIP complex. This effect of CMH on Ku70 further disrupts Ku70/FLIP complex and destabilizes FLIP in IPF-lung myofibroblasts.

HDAC8 = biological target: T1, HDAC8 (Homo sapiens, UniProt Q9BY41); conditions: prostate cancer cells; cited from earlier work
T1 sequence (Q9BY41 1-377): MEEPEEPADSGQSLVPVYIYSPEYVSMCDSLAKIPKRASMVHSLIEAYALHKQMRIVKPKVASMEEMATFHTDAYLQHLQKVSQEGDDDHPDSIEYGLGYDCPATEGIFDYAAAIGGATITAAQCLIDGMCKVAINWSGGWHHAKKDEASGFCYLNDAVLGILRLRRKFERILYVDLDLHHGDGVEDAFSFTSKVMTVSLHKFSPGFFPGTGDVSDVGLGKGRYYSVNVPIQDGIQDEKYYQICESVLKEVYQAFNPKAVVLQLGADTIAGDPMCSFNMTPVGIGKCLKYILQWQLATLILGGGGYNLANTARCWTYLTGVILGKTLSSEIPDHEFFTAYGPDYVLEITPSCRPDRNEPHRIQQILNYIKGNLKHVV

[1] = test system: IPF myofibroblasts of CCL-191 line; test: Expression of specific genes in IPF myofibroblasts incubated with CMH (Table 1); type: cell-based, human; conditions: CCL-191 incubated with CMH; 2-^ΔΔCt, mean±standard error
Procedure: Table 1 below indicates the expression of specific genes in IPF myofibroblasts of CCL-191 line incubated with CMH and the vehicle, correspondingly, calculated by 2-^ΔΔCt the data is represented as mean±standard error).

HDAC3 = HDAC3 (Homo sapiens, UniProt O15379); conditions: prostate cancer cells; cited from earlier work
Chain of HDAC3 (O15379 whole entry, species assumed): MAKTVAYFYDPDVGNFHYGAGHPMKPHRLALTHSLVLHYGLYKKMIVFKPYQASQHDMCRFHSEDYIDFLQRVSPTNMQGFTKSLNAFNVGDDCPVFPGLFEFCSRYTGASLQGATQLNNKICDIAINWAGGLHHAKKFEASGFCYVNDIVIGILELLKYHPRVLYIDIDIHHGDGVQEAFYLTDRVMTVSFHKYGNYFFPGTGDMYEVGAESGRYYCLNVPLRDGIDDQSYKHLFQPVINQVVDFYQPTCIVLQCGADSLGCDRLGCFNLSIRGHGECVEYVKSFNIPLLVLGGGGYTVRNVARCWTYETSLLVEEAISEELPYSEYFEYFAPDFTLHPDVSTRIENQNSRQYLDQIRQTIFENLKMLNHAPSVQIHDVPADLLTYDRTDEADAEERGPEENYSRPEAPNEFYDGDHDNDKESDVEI
Chain of HDAC3 (Q9Y618 395-489 partner limits assumed, species assumed): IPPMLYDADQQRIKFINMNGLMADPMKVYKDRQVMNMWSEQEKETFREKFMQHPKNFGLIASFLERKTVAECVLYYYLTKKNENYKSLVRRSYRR

[2] = cited from earlier work
Ku70 = Ku70 immunoprecipitation with pan-acetyl / Ku70 immunoblot in IPF-lung myofibroblasts; type: cell-based, human; conditions: CMH 30 μM, 72 h
Procedure: as §1, §2, §3
IPF cell line ATCC-191 (0.5×10^6), were exposed in culture (10% DMEM) to a compound of Formula 6 (1 or 3 μM) vs. 4% DMSO (vehicle) for 16 h. Ku70 immunoprecipitation with subsequent pan-acetyl (FIG. 8A) and immunoblots of Ku70 with anti-Ku70 mAb (FIG. 8B) or FLIP with anti-FLIP mAb (FIG. 8C) were measured. […] IPF-lung myofibroblasts decreased FLIP expression from an OD of 1.00 to 0.51 (about twofold, FIG. 8C).

[3] = test system: BLM-treated C57BL/6 WT mice; conditions: prior finding restated; cited from earlier work

Cc1cc(Cl)ccc1OCCCC(=O)NO [CMH, 4-(4-chloro-2-methylphenoxy)-N-hydroxybutanamide]
Viable cells, trypan blue exclusion (IPF-lung myofibroblasts; CMH plus CH-11 anti-human Fas mAb (24 h, 10 μM), control 0.9-1×10^5): 0.3×10^5 cells
OD of cleaved to uncleaved caspase-3 ratio (IPF-lung myofibroblasts; CMH plus anti-Fas mAb, vehicle 0.3): 2.8
Likelihood to undergo Fas-induced apoptosis vs. vehicle (IPF-lung myofibroblasts; from cleaved to uncleaved caspase-3 ratios): 10 times
Inhibition of HDAC2 (HDAC2): not inhibited
Decrease of Ku70/FLIP complex (Ku70/FLIP complex): about 1.5 fold
Ku70/FLIP complex in FLIP-IB (Ku70/FLIP complex; from 6.2): 4.1 OD
Inhibition of HDAC8 (HDAC8): Selective inhibition
AIFM1 expression, M ± m [1]: 12.3 ± 2.89
BAX expression, M ± m [1]: 319.29 ± 78.06
BCL2L10 expression, M ± m [1]: 0.13 ± 0.05
BCL2L11 expression, M ± m [1]: 0.58 ± 0.09
CASP8 expression, M ± m [1]: 7.13 ± 4.18
CASP9 expression, M ± m [1]: 9.57 ± 6.69
CFLAR expression, M ± m [1]: 3.5 ± 1.42
CFLAR-AS1 expression, M ± m [1]: 0.11 ± 0.04
DIABLO expression, M ± m [1]: 13.48 ± 3.27
E2F1 expression, M ± m [1]: 0.39 ± 0.21
HIC1 expression, M ± m [1]: 0.68 ± 0.44
MCL1 expression, M ± m [1]: 67.57 ± 34.04
PPP1R13B expression, M ± m [1]: 0.1 ± 0.05
PRKCD expression, M ± m [1]: 9 ± 4
PRKCDBP expression, M ± m [1]: 21.87 ± 9.21
SIRT1 expression, M ± m [1]: 0.48 ± 0.04
TP53AIP1 expression, M ± m [1]: 1.11 ± 0.2
TP53INP2 expression, M ± m [1]: 8.16 ± 0.54
TP53 expression, M ± m [1]: 1.8 ± 1.19
XRCC6 expression, M ± m [1]: 84.85 ± 22.88
Inhibition of HDAC3 (HDAC3): Selective inhibition
Water solubility [2]: low
Increase of Ku70 acetylation (Ku70): about twofold
Ku70 acetylation, optical density ratio (OD) in pan-acetyl IB of Ku70 IP (Ku70; from 2.43 before): 5.6 OD
Lung fibrosis in in-vivo model, C57BL/6 mice lungs following bleomycin instillation [3]: attenuate lung fibrosis
